Laboratory results published in US20250215029A1 (Recludix Pharma, Inc., priority 2022, published 2025).

Key:
[1] = biological target: T1, Recombinant STAT3 protein (STAT3 (G127-I722)) (Homo sapiens, UniProt P40763); experiment: STAT3 Fluorescence Polarization (FP) Assay; assay type: binding; conditions: STAT3 25 nM, probe 5-FAM-GpYLPQTV-NH2 2 nM, 45-minute incubation; read-out: STAT3 (FP assay IC50)
T1 construct: Recombinant STAT3 protein (STAT3 (G127-I722))
How it was run: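 In this competition FP format, STAT3 residues G127-I722 (25 nM) and 2 nM 5-FAM-GpYLPQTV-NH2 met test compounds for 45 min at room temperature. IC50 values result from fitting mP signal against log concentration by nonlinear regression.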

[2] = biological target: T2, Recombinant STAT6 protein (STAT6 (W123-T658)) (Homo sapiens, UniProt P42226); experiment: STAT6 Fluorescence Polarization (FP) Assay; assay type: binding; conditions: STAT6 250 nM, probe 5-FAM-Ap[…]-NH2 2 nM, 45-minute incubation; read-out: STAT6 (FP assay IC50)
T2 construct: Recombinant STAT6 protein (STAT6 (W123-T658))
T2 sequence (P42226 123-658): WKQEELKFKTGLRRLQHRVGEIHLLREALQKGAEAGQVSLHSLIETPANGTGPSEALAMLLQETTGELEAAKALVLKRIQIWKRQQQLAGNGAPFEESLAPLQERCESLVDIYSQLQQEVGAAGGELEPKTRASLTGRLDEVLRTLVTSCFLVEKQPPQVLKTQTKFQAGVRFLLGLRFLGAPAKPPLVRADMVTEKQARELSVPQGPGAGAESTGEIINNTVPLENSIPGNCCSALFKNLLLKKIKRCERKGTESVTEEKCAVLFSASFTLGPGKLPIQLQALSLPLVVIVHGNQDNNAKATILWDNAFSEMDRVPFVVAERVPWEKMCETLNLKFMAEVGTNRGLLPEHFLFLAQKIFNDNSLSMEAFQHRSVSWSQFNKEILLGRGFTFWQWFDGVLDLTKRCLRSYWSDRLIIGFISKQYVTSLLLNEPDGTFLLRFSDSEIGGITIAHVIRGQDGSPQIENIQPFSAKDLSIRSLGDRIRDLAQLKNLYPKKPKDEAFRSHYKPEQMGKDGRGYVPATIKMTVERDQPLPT
How it was run: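 Serially diluted compounds received a premix of STAT6 (W123-T658, 250 nM) and 5-FAM peptide probe (2 nM) in pH 7.4 HEPES buffer containing DTT and Tween 20. Following 45 min at room temperature, FP was recorded. IC50s were fitted by nonlinear regression; values are binned A (≤300 nM), B (>300-3000 nM), C (>3-30 μM), D (>30 μM).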

T1 sequence (P40763 127-722): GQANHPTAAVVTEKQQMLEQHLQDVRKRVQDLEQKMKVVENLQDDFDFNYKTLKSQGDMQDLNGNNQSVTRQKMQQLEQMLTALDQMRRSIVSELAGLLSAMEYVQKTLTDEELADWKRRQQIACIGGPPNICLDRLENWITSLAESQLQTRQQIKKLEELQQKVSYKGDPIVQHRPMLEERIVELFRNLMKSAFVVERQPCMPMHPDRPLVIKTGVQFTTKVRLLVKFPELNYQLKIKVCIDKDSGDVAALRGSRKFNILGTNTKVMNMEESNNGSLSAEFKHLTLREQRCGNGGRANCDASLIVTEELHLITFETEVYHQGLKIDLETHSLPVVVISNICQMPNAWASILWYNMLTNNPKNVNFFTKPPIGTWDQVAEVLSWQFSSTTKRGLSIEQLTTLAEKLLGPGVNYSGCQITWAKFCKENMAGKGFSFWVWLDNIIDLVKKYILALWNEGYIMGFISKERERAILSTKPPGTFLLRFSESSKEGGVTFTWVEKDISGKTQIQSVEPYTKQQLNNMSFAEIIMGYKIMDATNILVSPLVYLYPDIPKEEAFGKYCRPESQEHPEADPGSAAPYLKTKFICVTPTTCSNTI

SMILES	IC50 [1] [nM]	IC50 [2] [nM]
O=C(N[C@H]1CC[C@H](N2CCC2)C[C@H]2CC[C@@H](C(=O)N3CC(C(=O)N4CCOCC4)C3)N2C1=O)c1cc2cc(C(F)(F)P(=O)(O)O)ccc2s1 [Compound 20, ((2-(((3S,6S,9S,10aR)-9-(azetidin-1-yl)-3-(3-(morpholine-4-carbonyl)azetidine-1-carbonyl)-5-oxodecahydropyrrolo [1,2-a]azocin-6-yl)carbamoyl)benzo[b]thiophen-5-yl)difluoromethyl) phosphonic acid]	100 to 1000	3000 to 30000
CN(C(=O)[C@@H]1CC[C@@H]2CCCC[C@H](NC(=O)c3cc4cc(C(F)(F)P(=O)(O)O)ccc4s3)C(=O)N21)c1ccc2nnccc2c1 [Compound 24, ((2-(((3S,6S,10aS)-3-(cinnolin-6-yl (methyl)carbamoyl)-5-oxodecahydropyrrolo [1,2-a]azocin-6-yl)carbamoyl)benzo[b]thiophen-5-yl)difluoromethyl) phosphonic acid]	100 to 1000	≤ 300
O=C(N[C@H]1CCC2(CC2)C[C@H]2CC[C@@H](C(=O)N3CC(c4cccnc4)C3)N2C1=O)c1cc2cc(C(F)(F)P(=O)(O)O)ccc2s1 [Compound 25, (difluoro(2-(((3′S,6′S,10a′R)-5′-oxo-3′-(3-(pyridin-3-yl)azetidine-1-carbonyl)octahydro-1′H-spiro [cyclopropane-1,9′-pyrrolo[1,2-a]azocin]-6′-yl)carbamoyl)benzo[b]thiophen-5-yl)methyl) phosphonic acid]	< 100	300 to 3000
O=C(N[C@H]1CC/C=C\[C@H]2CC[C@@H](C(=O)N3CC(c4cccnc4)C3)N2C1=O)c1cc2cc(C(F)(F)P(=O)(O)O)ccc2s1 [Compound 26, (difluoro(2-(((3S,6S,10aR,Z)-5-oxo-3-(3-(pyridin-3-yl)azetidine-1-carbonyl)-1,2,3,5,6,7,8,10a-octahydropyrrolo[1,2-a]azocin-6-yl)carbamoyl)benzo[b]thiophen-5-yl)methyl) phosphonic acid]	< 100	300 to 3000
O=C(N[C@H]1CCC[C@H]2CC[C@@H](C(=O)Nc3ccc(-c4ccccc4)cc3)N2C1=O)c1ccc2ccc(C(F)(F)P(=O)(O)O)cc2c1 [Compound 29, ((7-(((3S,6S,9aS)-3-([1,1′-biphenyl]-4-ylcarbamoyl)-5-oxooctahydro-1H-pyrrolo[1,2-a]azepin-6-yl)carbamoyl)naphthalen-2-yl)difluoromethyl) phosphonic acid]	100 to 1000	3000 to 30000
CN(C(=O)[C@@H]1CC[C@@H]2C/C=C\C[C@H](NC(=O)c3cc4cc(C(F)(F)P(=O)(O)O)ccc4[nH]3)C(=O)N21)c1ccccc1 [Compound 30]	1000 to 10000	300 to 3000
O=C(N[C@H]1CCC[C@H]2CC[C@@H](C(=O)NCc3c[nH]c4ncccc34)N2C1=O)c1cc2cc(C(F)(F)P(=O)(O)O)ccc2s1 [Compound 31, ((2-(((3S,6S,9aS)-3-(((1H-pyrrolo[2,3-b]pyridin-3-yl)methyl)carbamoyl)-5-oxooctahydro-1H-pyrrolo[1,2-a]azepin-6-yl)carbamoyl)benzo [b]thiophen-5-yl)difluoromethyl) phosphonic acid]	100 to 1000	300 to 3000
CS(=N)(=O)CC1CN(C(=O)[C@@H]2CC[C@@H]3CCC[C@H](NC(=O)c4cc5cc(C(F)(F)P(=O)(O)O)ccc5s4)C(=O)N32)C1 (stereo partly drawn) [Compound 32, (difluoro(2-(((3S,6S,9aS)-3-(3-((S-methyl-sulfonimidoyl)methyl)azetidine-1-carbonyl)-5-oxooctahydro-1H-pyrrolo[1,2-a]azepin-6-yl)carbamoyl)benzo[b]thiophen-5-yl)methyl) phosphonic acid]	< 100	3000 to 30000
O=C(N[C@H]1CCC[C@H]2CC[C@@H](C(=O)N3CC(c4cccnc4)C3)N2C1=O)c1cc2cc(C(F)(F)P(=O)(O)O)ccc2s1 [Compound 33, (difluoro(2-(((3S,6S,9S)-5-oxo-3-(3-(pyridin-3-yl)azetidine-1-carbonyl)octahydro-1H-pyrrolo[1,2-a]azepin-6-yl)carbamoyl)benzo[b]thiophen-5-yl)methyl) phosphonic acid]	< 100	300 to 3000
O=C(N[C@H]1CCC[C@H]2CC[C@@H](C(=O)N3CC(N4CCOCC4)C3)N2C1=O)c1cc2cc(C(F)(F)P(=O)(O)O)ccc2s1 [Compound 34, (difluoro(2-(((3S,6S,9aS)-3-(3-morpholino-azetidine-1-carbonyl)-5-oxooctahydro-1H-pyrrolo[1,2-a]azepin-6-yl)carbamoyl)benzo[b]thiophen-5-yl)methyl) phosphonic acid]	100 to 1000	3000 to 30000
O=C(/C=C/c1ccc(C(F)(F)P(=O)(O)O)cc1)N[C@H]1CCC[C@H]2CC[C@@H](C(=O)Nc3ccc(-c4ccccc4)cc3)N2C1=O [Compound 35, ((4-((E)-3-(((3S,6S,9S)-3-([1,1′-biphenyl]-4-ylcarbamoyl)-5-oxooctahydro-1H-pyrrolo[1,2-a]azepin-6-yl)amino)-3-oxoprop-1-en-1-yl)phenyl)difluoromethyl) phosphonic acid]	> 10000	3000 to 30000
O=C(N[C@H]1CCCC[C@H]2CC[C@@H](C(=O)N3CC(Cc4ccccc4)C3)N2C1=O)c1cc2cc(C(F)(F)P(=O)(O)O)ccc2s1 [Compound 36, ((2-(((3S,6S,10aS)-3-(3-benzylazetidine-1-carbonyl)-5-oxodecahydro-pyrrolo[1,2-a]azocin-6-yl)carbamoyl)benzo[b]thiophen-5-yl)difluoromethyl) phosphonic acid]	< 100	300 to 3000
O=C(N[C@H]1CCCC[C@H]2CC[C@@H](C(=O)NCc3n[nH]c4ncccc34)N2C1=O)c1cc2cc(C(F)(F)P(=O)(O)O)ccc2s1 [Compound 37, ((2-(((3S,6S,10aS)-3-(((1H-pyrazolo[3,4-b]pyridin-3-yl)methyl)carbamoyl)-5-oxodecahydro-pyrrolo[1,2-a]azocin-6-yl)carbamoyyl)benzo[b]thiophen-5-yl)difluoro-methyl) phosphonic acid]	100 to 1000	300 to 3000
Cn1c(C2CN(C(=O)[C@@H]3CC[C@@H]4CCCC[C@H](NC(=O)c5cc6cc(C(F)(F)P(=O)(O)O)ccc6s5)C(=O)N43)C2)nc2ccccc21 [Compound 38, (difluoro(2-(((3S,6S,10aS)-3-(3-(1-methyl-1H-benzo[d]imidazol-2-yl)azetidine-1-carbonyl)-5-oxodecahydropyrrolo [1,2-a]azocin-6-yl)carbamoyl)benzo[b]thiophen-5-yl)methyl) phosphonic acid]	< 100	300 to 3000
O=C(N[C@H]1CCCC[C@H]2CC[C@@H](C(=O)N3CC(Oc4ccccc4)C3)N2C1=O)c1cc2cc(C(F)(F)P(=O)(O)O)ccc2s1 [Compound 39, (difluoro(2-(((3S,6S,10aS)-5-oxo-3-(3-phenoxyazetidine-1-carbonyl)decahydropyrrolo [1,2-a]azocin-6-yl)carbamoyl)benzo[b]thiophen-5-yl)methyl) phosphonic acid]	100 to 1000	300 to 3000
C[C@]1(NC(=O)c2cc3cc(C(F)(F)P(=O)(O)O)ccc3s2)CCCC[C@H]2CC[C@@H](C(=O)N3CC(C(=O)N4CCOCC4)C3)N2C1=O [Compound 40, (difluoro(2-(((3S,6S,10aS)-6-methyl-3-(3-(morpholine-4-carbonyl)azetidine-1-carbonyl)-5-oxodecahydropyrrolo [1,2-a]azocin-6-yl)carbamoyl)benzo[b]thiophen-5-yl)methyl) phosphonic acid]	100 to 1000	3000 to 30000
O=C(N[C@H]1CCCC[C@H]2CC[C@@H](C(=O)N3CC4(CN(C(=O)Cc5ccccc5)C4)C3)N2C1=O)c1cc2cc(C(F)(F)P(=O)(O)O)ccc2s1 [Compound 42, (difluoro(2-(((3S,6S,10aS)-5-oxo-3-(6-(2-phenylacetyl)-2,6-diazaspiro[3.3]heptane-2-carbonyl)decahydropyrrolo [1,2-a]azocin-6-yl)carbamoyl)benzo[b]thiophen-5-yl)methyl) phosphonic acid]	100 to 1000	≤ 300
O=C(N[C@H]1CCC[C@H]2CC[C@@H](C(=O)N3CC(c4nc5ccccc5[nH]4)C3)N2C1=O)c1cc2cc(C(F)(F)P(=O)(O)O)ccc2s1 [Compound 43, ((2-(((3S,6S,9aS)-3-(3-(1H-benzo[d]imidazol-2-yl)azetidine-1-carbonyl)-5-oxooctahydro-1H-pyrrolo[1,2-a]azepin-6-yl)carbamoyl)benzo[b]thiophen-5-yl)difluoromethyl) phosphonic acid]	< 100	300 to 3000
